Laboratory results from patent US5140025A, “Thienotricylene for the treatment of bronchial diseases” (BYK Gulden Lomberg Chemische Fabrik GmbH, priority 1987, dated 1992).

Legend:
[1] = tested on: acetylcholine-induced bronchospasm; assay: Acetylcholine-induced bronchospasm in anaesthetised, spontaneously breathing guinea pigs, intravenous administration; type: in vivo, guinea pig (Pirbright White); settings: for Mean bronchospasmolytic activity, percentage increase of Vmaxe vs control spasm / Mean bronchospasmolytic activity, percentage increase of tidal volume (TV) vs control spasm: 0-60 min; for Mean bronchospasmolytic activity, percentage increase of Vmaxe vs control spasm / Mean bronchospasmolytic activity, percentage increase of tidal volume (TV) vs control spasm / Bronchospasmolytic activity, percentage increase of Vmaxe vs control spasm / Bronchospasmolytic activity, percentage increase of tidal volume (TV) vs control spasm: x±SEM, N=10; for Bronchospasmolytic activity, percentage increase of Vmaxe vs control spasm / Bronchospasmolytic activity, percentage increase of tidal volume (TV) vs control spasm: at 60 min
Source text: Effect of Intravenously Administered Telenzepine on Acetylchline-Induced Bronchospasms in Anaesthetised, Spontaneously Breathing Guinea Pigs
Method for simultaneously recording pharmacodynamic or toxic effects on interior sensitive receptors and the respiration of guinea pigs (U. Kilian, E. Muller, E. Ch. Dittmann and J. Hamacher, Arzneim.-Forsch. 28, 1699-1708, 1978).
Pirbright White, Interfauna (Tuttlingen), 350-450 g, male.
Ethylurethane 1.2 g/kg i.p. as 12.5% aqueous solution.
Pneumotachogram: Maximum flow velocities of the respiratory air during expiration (Vmaxe, "peak flow"), tidal volume (TV).
Acetylcholine as spasmogen, 0.2-0.3 μmol/kg i.v., dissolved in 0.9% NaCl.
-10 min control spasm, 0 min administration of substance, +2, +10, +20, +30, +60 min test spasms.
Determination of the effect of telenzepine on the parameters (mean and standard error of mean, n=10) and calculation of the bronchospasmolytic activity from this as percentage inhibition of the acetylcholine-induced decrease of Vmaxe and TV by means of time/effect curves. Computation of a dose/response curve of the mean bronchospasmolytic activity during the observation time (0-60 min) from the areas under the time/effect curves and reading of 1 h ED50 values. Determination of a dose/response curve of the bronchospasmolytic activity at time 60 min and reading ED50 values.

[2] = biological target: M1 receptor (ganglionic); assay: Receptor affinity, electrically stimulated rabbit vas deferens in organ bath; settings: vas deferens of the rabbit, agonist McN-A-343, Schild slope normalised to 1.00; listed as Compound 1
Procedure: Isometric contractions (HSE force transducer, K-30; tilt and zones, BD-9 chart recorder) of isolated seminal duct sections of rabbits (male, white New Zealand rabbits, 2.5-3.5 kg) were recorded in an organ bath (10 ml, 31° C., gassing with carbogen, initial tension of the organs 0.75 g) under electrical stimultion (HSE stimulator; hook-shaped Pt electrode 1 cm below the water surface of the bath; 30 V, 0.5 ms, 0.05 Hz). After an equilibration time of 30 minutes, cumulative dose/response curves of McN-A-343 (10^-7 -2×10^-6 M) were recorded simultaneously on 8 organ sections in each case (control curves), using the technique described by van Rossum (1963). After 3 control curves, a fixed concentration of the agonist (for example 5×10^-7, 10^-6, 3×10^-6, 10^-5 or 3×10^-5 M) per organ section was applied and, after stabilisation of the effect, increasing concentrations of the agonist to be tested were added. The nutrient solution used had the following composition (mM): NaCl 118, KCl 4.7, CaCl2 ·2H2 O 2.5, MgSO4 ·7H2 O 0.6, KH2 PO 4 1.2, NaHCO3 25.0 and glucose 11.1. In order to block α2 -adrenoreceptors, the nutrient solution additionally contained 10^-6 M yohimbine.

[3] = biological target: T1, M2 receptor (cardiac) (Rattus norvegicus, UniProt P10980); assay: Receptor affinity, electrically stimulated left atrium of the rat; settings: agonist carbachol, Schild slope normalised to 1.00, read-out: pA2 ± SEM, M2 receptor (cardiac) (converted)
T1 construct: isolated, left atria of rats (male 250-350 g); from tissue; host or cells: rat left atrium (isolated, male rats 250-350 g)
T1 sequence (P10980 1-466): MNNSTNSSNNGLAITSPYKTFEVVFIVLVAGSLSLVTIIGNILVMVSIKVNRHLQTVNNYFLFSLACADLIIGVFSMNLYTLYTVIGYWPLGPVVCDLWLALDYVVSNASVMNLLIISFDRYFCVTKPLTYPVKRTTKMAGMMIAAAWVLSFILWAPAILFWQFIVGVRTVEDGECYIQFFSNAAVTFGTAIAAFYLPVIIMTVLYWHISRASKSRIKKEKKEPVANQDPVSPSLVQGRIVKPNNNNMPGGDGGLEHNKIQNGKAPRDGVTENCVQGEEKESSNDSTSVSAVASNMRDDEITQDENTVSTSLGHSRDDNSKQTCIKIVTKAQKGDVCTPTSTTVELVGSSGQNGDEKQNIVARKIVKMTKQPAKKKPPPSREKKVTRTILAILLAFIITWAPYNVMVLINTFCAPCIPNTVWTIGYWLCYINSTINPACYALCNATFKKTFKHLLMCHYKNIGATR
Source text: The affinity of (±)-4,9-dihydro-3-methyl-4-[(4-methyl-1-piperazinyl)-acetyl]-10H-thieno[3,4-b][1,5]benzodiazepin-10-one (telenzepine, compound 2 in Table 7) and its conformers [(+)-enantiomer=compound 1, (-)-enantiomer=compound 3] to muscarinic M1 (ganglionic type) and M2 (cardiac type) receptors was investigated by the following methods:
Electrically Stimulated Left Atrium of the Rat (Eltze et al., 1985, Europ. J. Pharmacol. 112, 211-224).
Isometric contractions (HSE force transducer, K-30; Watanabe Linear Corder Mark 5) of isolated, left atria of rats (male 250-350 g) were recorded in an organ bath (10 ml, Tyrode nutrient solution, 31° C., gassing with carbogen, initial tension of the organs 0.25 g) under electrical stimulation (HSE stimulator; hook-shaped Pt electrodes at the base of the bath and immersed, annular Pt electrodes 1 cm below the water surface of the bath; 7 V, 3 ms, 2 Hz). After an equilibration time of 30 minutes, cumulative dose/response curves of carbachol (10^-8 -10^-6 M, in the presence of the antagonist also up to 10^-5 or 10^-4 M) were recorded simultaneously on 4 organs in each case by the technique described by van Rossum (1963). The substance to be tested was added to the organ baths 20 minutes before application of the carbachol. The pauses between the individual dose/response curves were 30-45 minutes.
The Tyrode nutrient solution used had the following composition (mM): NaCl 130, KCl 2.0, CaCl2 ·2H2 O 1.8, MgCl2 ·6H2 O 0.98, NaHCO3 12.0, NaH2 PO4 0.42 and glucose monohydrate 5.6. pA2 values (-log of the molar dissociation constants of the competitive antagonist-receptor complex) were determined by linear regression using the Schild plot: pA2 =-log [B/(x-1)], (Arunlakshana and Schild, 1959).
Table 7 below gives pA2 values of the substances, for which the slope of the regression lines for theoretically competitive antagonism have been normalised to 1.00 (Tallarida et al., 1979).

[4] = tested on: modified Shay rat (lesion formation and acid secretion); assay: Antiulcerogenic and secretion-inhibiting action on the modified Shay rat; type: in vivo
Source text: The excellent gastric protective action and the gastric secretion-inhibiting action of the compound (+)-4,9-dihydro-3-methyl-4-[(4-methyl-1-piperazinyl)-acetyl]-10H-thieno[3,4-b][1,5]benzodiazepin-10-one (=compound 1 in Table 8 below) in comparison with the corresponding (-)-enantiomer (=compound 3) and with the racemate (=compound 2) can be detected in studies on the modified Shay rat. The effect of the stated compounds after intravenous (i.v.) administration on the formation of lesions and the acid secretion in the modified Shay rat is shown in Table 8 below.
Ulcers are provoked in rats (female, 180-200 g, 4 animals per cage on high grids) which have fasted for 24 hours, by pylorus ligature (under diethyl ether anaesthesia) and oral administration of 100 mg/10 ml/kg of acetylsalicylic acid. The substances to be tested are administered intravenously (1 ml/kg) directly after the pylorus ligature. The wound is closed by means of Michel clamps. 4 hours afterwards, the animals are sacrificed under anaesthesia with ether by Atlas dislocation, and resection of the stomach.
The stomach is opened along the greater curvature and clamped to a cork sheet, the amount of secreted gastric juice (volume) is determined first and its HCl content (titration with sodium hydroxide solution) being determined subsequently. The number and size (=diameter) of ulcers present are determined using a stereomicroscope, under 10×magnification. The product of severity (according to the following point scale) and number of ulcers serves as an individual lesion index.
The reduction in the means lesion index of each treated group compared with the control group (=100%) serves as a measure of the antiulcerogenic effect. The ED50 is the dose which reduces the mean lesion index or the HCl secretion by 50% compared with the control.

[5] = at time 60 min after administration, 60 min
[6] = modified Shay rat, i.v., interpolated dose, 4 h, N=24, listed as 1, 240 min

## Cc1scc2c1N(C(=O)CN1CCN(C)CC1)c1ccccc1NC2=O [(+)-telenzepine, (+)-4,9-dihydro-3-methyl-4-[(4-methyl-1-piperazinyl)-acetyl]-10H-thieno[3,4-b][1,5]benzodiazepin-10-one]
[1]; 0.03 μmol/kg i.v.
  Mean bronchospasmolytic activity, percentage increase of Vmaxe vs control spasm: 13 ± 4%
  Mean bronchospasmolytic activity, percentage increase of tidal volume (TV) vs control spasm: 17 ± 4%
  Bronchospasmolytic activity, percentage increase of Vmaxe vs control spasm: 19 ± 6%
  Bronchospasmolytic activity, percentage increase of tidal volume (TV) vs control spasm: 23 ± 7%
[1]; 0.05 μmol/kg i.v.
  Mean bronchospasmolytic activity, percentage increase of Vmaxe vs control spasm: 21 ± 4%
  Mean bronchospasmolytic activity, percentage increase of tidal volume (TV) vs control spasm: 25 ± 5%
  Bronchospasmolytic activity, percentage increase of Vmaxe vs control spasm: 35 ± 7%
  Bronchospasmolytic activity, percentage increase of tidal volume (TV) vs control spasm: 39 ± 7%
[1]; 0.1 μmol/kg i.v.
  Mean bronchospasmolytic activity, percentage increase of Vmaxe vs control spasm: 57 ± 5%
  Mean bronchospasmolytic activity, percentage increase of tidal volume (TV) vs control spasm: 62 ± 5%
  Bronchospasmolytic activity, percentage increase of Vmaxe vs control spasm: 61 ± 6%
  Bronchospasmolytic activity, percentage increase of tidal volume (TV) vs control spasm: 64 ± 7%
[1]; 0.5 μmol/kg i.v.
  Mean bronchospasmolytic activity, percentage increase of Vmaxe vs control spasm: 87 ± 3%
  Mean bronchospasmolytic activity, percentage increase of tidal volume (TV) vs control spasm: 92 ± 3%
  Bronchospasmolytic activity, percentage increase of Vmaxe vs control spasm: 95 ± 4%
  Bronchospasmolytic activity, percentage increase of tidal volume (TV) vs control spasm: 100 ± 4%
[1]; 1 μmol/kg i.v.
  Mean bronchospasmolytic activity, percentage increase of Vmaxe vs control spasm: 82 ± 3%
  Mean bronchospasmolytic activity, percentage increase of tidal volume (TV) vs control spasm: 85 ± 3%
  Bronchospasmolytic activity, percentage increase of Vmaxe vs control spasm: 88 ± 4%
  Bronchospasmolytic activity, percentage increase of tidal volume (TV) vs control spasm: 88 ± 4%
[1]; [5]
  ED50 of bronchospasmolytic activity, TV: 0.07 μmol/kg i.v.
  ED50 of bronchospasmolytic activity, Vmaxe: 0.07 μmol/kg i.v.
[1]; i.v.
  dose range of dose- and time-dependent inhibition of acetylcholine-induced bronchospasm: 0.03-1 μmol/kg i.v.
[1]; i.v., observation period
  persistence of maximum effect: ≥ 1 h
[1]; mean activity 0-60 min, 60 min
  ED50 of mean bronchospasmolytic activity, TV: 0.08 μmol/kg i.v.
  ED50 of mean bronchospasmolytic activity, Vmaxe: 0.1 μmol/kg i.v.
[2]
  pA2 ± SEM, M1 receptor (ganglionic): 9.12 ± 0.08
[3]
  Kb: 21.4 nM
[4]; [6]
  Gastric protective action, reduction of lesion index, about ED50: ~0.01 mg/kg i.v.
  Inhibition of acid secretion, reduction of HCl secretion, about ED50: ~0.085 mg/kg i.v.
[4]; warm-blooded animals
  protective action with respect to stomach and intestine, doses compared with acid secretion-inhibiting doses: observed with the administration of doses which are below the doses which inhibit acid secretion
